PubChem BioAssay AID1963972 (Molecular Pharmacology Branch, DTP, NCI, 2024)
pIC50: −log10 of the molar value.

System: 945468-187-T-J2-PDC spheroids viability
Assay: Anticancer human tumor 945468-187-T-J2-PDC patient-derived rectal carcinoma cell line growth inhibition [PI3K]
Conditions: spheroids with HUVEC and MSC; for pIC50: curve of first compound; for viability, T/C: stronger effect = lower value
In short: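 Complex 3D spheroids (cancer cells + endothelial HUVEC + mesenchymal stem cells); drug pairs of targeted agent x inavolisib/alpelisib/duvelisib/copanlisib; half-log series from ~Cmax, max 10 microM if Cmax unknown; endpoint viability.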

[1] = second compound 0.00316 µM, first compound 0.0316 µM
[2] = second compound 0.00316 µM, first compound 0.1 µM
[3] = second compound 0.00316 µM, first compound 0.316 µM
[4] = second compound 0.00316 µM, first compound 1 µM
[5] = second compound 0.00316 µM, first compound 3.16 µM
[6] = second compound 0.00316 µM, first compound 10 µM
[7] = second compound 0.01 µM, first compound 0.0316 µM
[8] = second compound 0.01 µM, first compound 0.1 µM
[9] = second compound 0.01 µM, first compound 0.316 µM
[10] = second compound 0.01 µM, first compound 1 µM
[11] = second compound 0.01 µM, first compound 3.16 µM
[12] = second compound 0.01 µM, first compound 10 µM
[13] = second compound 0.0316 µM, first compound 0.0316 µM
[14] = second compound 0.0316 µM, first compound 0.1 µM
[15] = second compound 0.0316 µM, first compound 0.316 µM
[16] = second compound 0.0316 µM, first compound 1 µM
[17] = second compound 0.0316 µM, first compound 3.16 µM
[18] = second compound 0.0316 µM, first compound 10 µM
[19] = second compound 0.1 µM, first compound 0.0316 µM
[20] = second compound 0.1 µM, first compound 0.1 µM
[21] = second compound 0.1 µM, first compound 0.316 µM
[22] = second compound 0.1 µM, first compound 1 µM
[23] = second compound 0.1 µM, first compound 3.16 µM
[24] = second compound 0.1 µM, first compound 10 µM
[25] = second compound 0.316 µM, first compound 0.0316 µM
[26] = second compound 0.316 µM, first compound 0.1 µM
[27] = second compound 0.316 µM, first compound 0.316 µM
[28] = second compound 0.316 µM, first compound 1 µM
[29] = second compound 0.316 µM, first compound 3.16 µM
[30] = second compound 0.316 µM, first compound 10 µM
[31] = second compound 1 µM, first compound 0.0316 µM
[32] = second compound 1 µM, first compound 0.1 µM
[33] = second compound 1 µM, first compound 0.316 µM
[34] = second compound 1 µM, first compound 1 µM
[35] = second compound 1 µM, first compound 3.16 µM
[36] = second compound 1 µM, first compound 10 µM
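Further: spheroids exposed to compounds for seven days before reading.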

CC1(C)CCC(CN2CCN(c3ccc(C(=O)NS(=O)(=O)c4ccc(NCC5CCOCC5)c([N+](=O)[O-])c4)c(Oc4cnc5[nH]ccc5c4)c3)CC2)=C(c2ccc(Cl)cc2)C1 + COc1c(OCCCN2CCOCC2)ccc2c3n(c(=NC(=O)c4cnc(N)nc4)nc12)CCN3 was tested, and the pIC50 (second compound 0.00316 µM) was < 5.00, the pIC50 (second compound 0.01 µM) was < 5.00 and the pIC50 (second compound 0.0316 µM) was < 5.00. The pIC50 (second compound 0.1 µM) was < 5.00, the pIC50 (second compound 0.316 µM) was > 7.50 and the pIC50 (second compound 1 µM) was > 7.50. For the same molecule, the viability, T/C [1] was 87.8%, the viability, T/C [2] was 87.4% and the viability, T/C [3] was 94.8%. It also gave a viability, T/C [4] of 110%, a viability, T/C [5] of 116% and a viability, T/C [6] of 74.1%. The viability, T/C [7] was 96.8%, the viability, T/C [8] was 100% and the viability, T/C [9] was 90.5%. For the same molecule, the viability, T/C [10] was 89.6%, the viability, T/C [11] was 95.7% and the viability, T/C [12] was 90.3%. For the same molecule, the viability, T/C [13] was 99.9%, the viability, T/C [14] was 103% and the viability, T/C [15] was 82.9%. It also gave a viability, T/C [16] of 115%, a viability, T/C [17] of 97% and a viability, T/C [18] of 105%. The viability, T/C [19] was 87.7%, the viability, T/C [20] was 75% and the viability, T/C [21] was 100%. The viability, T/C [22] was 90.5%, the viability, T/C [23] was 84.5% and the viability, T/C [24] was 81.6%. The viability, T/C [25] was 31.3%, the viability, T/C [26] was 36.7% and the viability, T/C [27] was 47.7%. It also gave a viability, T/C [28] of 38.6%, a viability, T/C [29] of 33% and a viability, T/C [30] of 36.7%. For the same molecule, the viability, T/C [31] was 19.9%, the viability, T/C [32] was 21.4% and the viability, T/C [33] was 19.4%. It also gave a viability, T/C [34] of 19.9%, a viability, T/C [35] of 22.4% and a viability, T/C [36] of 22.6%.
In the case of C[C@@H](NC(=O)c1ncnc(N)c1Cl)c1ncc(C(=O)Nc2cc(C(F)(F)F)c(Cl)cn2)s1 + COc1c(OCCCN2CCOCC2)ccc2c3n(c(=NC(=O)c4cnc(N)nc4)nc12)CCN3, the pIC50 (second compound 0.00316 µM) was < 5.00, the pIC50 (second compound 0.01 µM) was < 5.00 and the pIC50 (second compound 0.0316 µM) was < 5.00. The pIC50 (second compound 0.1 µM) was < 5.00, the pIC50 (second compound 0.316 µM) was > 7.50 and the pIC50 (second compound 1 µM) was > 7.50. It also gave a viability, T/C [1] of 109%, a viability, T/C [2] of 115% and a viability, T/C [3] of 116%. For the same molecule, the viability, T/C [4] was 113%, the viability, T/C [5] was 99.3% and the viability, T/C [6] was 102%. The viability, T/C [7] was 133%, the viability, T/C [8] was 119% and the viability, T/C [9] was 126%. The viability, T/C [10] was 119%, the viability, T/C [11] was 112% and the viability, T/C [12] was 125%. It also gave a viability, T/C [13] of 108%, a viability, T/C [14] of 94.6% and a viability, T/C [15] of 111%. It also gave a viability, T/C [16] of 142%, a viability, T/C [17] of 96% and a viability, T/C [18] of 122%. For the same molecule, the viability, T/C [19] was 94%, the viability, T/C [20] was 102% and the viability, T/C [21] was 94.9%. The viability, T/C [22] was 95%, the viability, T/C [23] was 92.7% and the viability, T/C [24] was 92%. For the same molecule, the viability, T/C [25] was 46%, the viability, T/C [26] was 49.3% and the viability, T/C [27] was 50.9%. For the same molecule, the viability, T/C [28] was 57.7%, the viability, T/C [29] was 53.5% and the viability, T/C [30] was 63.9%. The viability, T/C [31] was 24.4%, the viability, T/C [32] was 26.1% and the viability, T/C [33] was 25.6%. It also gave a viability, T/C [34] of 22%, a viability, T/C [35] of 23.5% and a viability, T/C [36] of 26.8%.
Cn1ncnc1[C@H]1c2n[nH]c(=O)c3cc(F)cc(c23)N[C@@H]1c1ccc(F)cc1 + COc1c(OCCCN2CCOCC2)ccc2c3n(c(=NC(=O)c4cnc(N)nc4)nc12)CCN3 was tested, and the pIC50 (second compound 0.00316 µM) was < 7.00, the pIC50 (second compound 0.01 µM) was < 7.00 and the pIC50 (second compound 0.0316 µM) was < 7.00. For the same molecule, the pIC50 (second compound 0.1 µM) was < 7.00, the pIC50 (second compound 0.316 µM) was > 9.50 and the pIC50 (second compound 1 µM) was > 9.50. The viability, T/C (second compound 0.00316 µM, first compound 0.000316 µM) was 107%, the viability, T/C (second compound 0.00316 µM, first compound 0.001 µM) was 114% and the viability, T/C (second compound 0.00316 µM, first compound 0.00316 µM) was 90.7%. For the same molecule, the viability, T/C (second compound 0.00316 µM, first compound 0.01 µM) was 104%, the viability, T/C [1] was 97.3% and the viability, T/C [2] was 108%. The viability, T/C (second compound 0.01 µM, first compound 0.000316 µM) was 105%, the viability, T/C (second compound 0.01 µM, first compound 0.001 µM) was 128% and the viability, T/C (second compound 0.01 µM, first compound 0.00316 µM) was 101%. For the same molecule, the viability, T/C (second compound 0.01 µM, first compound 0.01 µM) was 84%, the viability, T/C [7] was 98.4% and the viability, T/C [8] was 96.8%. The viability, T/C (second compound 0.0316 µM, first compound 0.000316 µM) was 98.7%, the viability, T/C (second compound 0.0316 µM, first compound 0.001 µM) was 107% and the viability, T/C (second compound 0.0316 µM, first compound 0.00316 µM) was 85.3%. It also gave a viability, T/C (second compound 0.0316 µM, first compound 0.01 µM) of 104%, a viability, T/C [13] of 95.2% and a viability, T/C [14] of 88.5%. For the same molecule, the viability, T/C (second compound 0.1 µM, first compound 0.000316 µM) was 93.2%, the viability, T/C (second compound 0.1 µM, first compound 0.001 µM) was 75.7% and the viability, T/C (second compound 0.1 µM, first compound 0.00316 µM) was 83.6%. The viability, T/C (second compound 0.1 µM, first compound 0.01 µM) was 81.3%, the viability, T/C [19] was 84.3% and the viability, T/C [20] was 88.1%. It also gave a viability, T/C (second compound 0.316 µM, first compound 0.000316 µM) of 34%, a viability, T/C (second compound 0.316 µM, first compound 0.001 µM) of 35.2% and a viability, T/C (second compound 0.316 µM, first compound 0.00316 µM) of 43.5%. The viability, T/C (second compound 0.316 µM, first compound 0.01 µM) was 39.3%, the viability, T/C [25] was 39.3% and the viability, T/C [26] was 44%. The viability, T/C (second compound 1 µM, first compound 0.000316 µM) was 21%, the viability, T/C (second compound 1 µM, first compound 0.001 µM) was 19.7% and the viability, T/C (second compound 1 µM, first compound 0.00316 µM) was 23.7%. It also gave a viability, T/C (second compound 1 µM, first compound 0.01 µM) of 22.8%, a viability, T/C [31] of 20.2% and a viability, T/C [32] of 20.8%.
